In patent publication US4935449A, “N-2,3-butadienyl tri- and tetraaminoalkane derivatives” (Merrell Dow Pharmaceuticals Inc., priority 1988, dated 1990):

Assays:
PAO = PAO activity ex vivo in the liver of mice dosed i.p. 24 hours before; conditions: mouse liver, Dose 1.0 mg/kg i.p., control 18.7
Text: MEASUREMENT OF PAO ACTIVITIES IN MOUSE TISSUES
Chim. Biophys. Acta 38: 69-76.

Rat Liver Pao = Rat Liver Pao (Rattus norvegicus, UniProt A0A8I6AEP5); assay: In vitro inhibition of partially purified rat liver polyamine oxidase (PAO); assay type: biochemical
Chain of Rat Liver Pao (A0A8I6AEP5 62-564): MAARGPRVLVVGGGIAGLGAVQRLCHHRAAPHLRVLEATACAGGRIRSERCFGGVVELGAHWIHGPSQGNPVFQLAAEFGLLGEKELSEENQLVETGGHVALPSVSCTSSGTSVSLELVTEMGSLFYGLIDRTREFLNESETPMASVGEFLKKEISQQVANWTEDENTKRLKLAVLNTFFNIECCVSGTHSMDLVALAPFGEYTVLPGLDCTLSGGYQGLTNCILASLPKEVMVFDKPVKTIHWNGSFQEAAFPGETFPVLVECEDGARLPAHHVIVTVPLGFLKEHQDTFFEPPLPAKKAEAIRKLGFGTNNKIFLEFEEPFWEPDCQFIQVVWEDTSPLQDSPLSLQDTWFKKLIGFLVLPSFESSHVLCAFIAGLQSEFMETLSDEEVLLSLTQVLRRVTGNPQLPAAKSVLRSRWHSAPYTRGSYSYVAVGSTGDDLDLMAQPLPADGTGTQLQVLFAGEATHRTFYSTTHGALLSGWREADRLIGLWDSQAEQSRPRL
Method: Polyamine Oxidase Inhibition^1
Rat liver polyamine oxidase was purified by the procedure of Holtta, E.
step. Ki and .tau.50 were determined using the partially

Plasmodia spp. [1] = conditions: liver of infected mice; cited from earlier work
T. b. brucei = conditions: in mice; cited from earlier work
Plasmodia spp. [2] = conditions: in culture in vitro; cited from earlier work
P. gallinaceum = P. gallinaceum in chickens; cited from earlier work
ODC = conditions: cited from earlier work
P. berghei = conditions: cited from earlier work
Plasmodia spp. [3] = conditions: cited from earlier work
Pneumocystis carinii = conditions: cited from earlier work
Eimeria spp. = conditions: cited from earlier work
ODC and AdoMetDC = conditions: cited from earlier work
natural polyamines = conditions: exposure of cells; cited from earlier work
L1210 cells = conditions: cited from earlier work

Row | SMILES | PAO Activity (PAO) [p/mol/min/mg protein] | .tau.50 (Rat Liver Pao) [min] | repression of ODC and AdoMetDC (ODC and AdoMetDC) | depletion of the natural polyamines (natural polyamines) | support of growth of L1210 cells (L1210 cells) | further results
1 | C=C=CCNCCCNCCCNCC=C=C [Compound 46] | 1.0 | 4.0 |  |  |  | 
2 | C=C=CCNCCCNCCCCCCCCNCCCNCC=C=C [Compound 51] | 4.1 | 2.0 |  |  |  | 
3 | NCCC[C@](N)(C(=O)O)C(F)F [DFMO, α-difluoromethylornithine] |  |  |  |  |  | exoerythrocytic schizogony in the liver (Plasmodia spp. [1]): inhibit the cycle in the liver of infected mice; cure of acute infections of T. b. brucei (T. b. brucei): totally cure acute infections; erythrocytic replication (schizogony) (Plasmodia spp. [2]): block erythrocytic replication (schizogony) in culture in vitro; curative effect on erythrocytic forms of malaria in vivo (P. gallinaceum): no curative effects; inhibition of ODC (ODC): inhibits ODC; curative effect on erythrocytic forms of malaria in vivo (P. berghei; P. berghei in mice): no curative effects; parasitemia in P. berghei infections (P. berghei; P. berghei infections): significantly reduce parasitemia; sporogonous cycle in the mosquito vector (Plasmodia spp. [3]): completely inhibit the sporogonous cycle in the mosquito vector; sensitivity of Pneumocystis carinii (Pneumocystis carinii): sensitive; sensitivity of Eimeria spp. (Eimeria spp.): sensitive
4 | CCNCCCCNCCCNCC [N^1,N^8 -bis(ethyl)spermidine] |  |  | mimic the action of their parent polyamines in the repression of ODC and AdoMetDC | leads to the depletion of the natural polyamines | will not support growth of L1210 cells | 
5 | CCNCCCNCCCCNCCCNCC [N^1,N^12 -bis(ethyl)spermine] |  |  | mimic the action of their parent polyamines in the repression of ODC and AdoMetDC | leads to the depletion of the natural polyamines | will not support growth of L1210 cells | 
